pEC50: −log10 of the molar value. In brackets after ≈: the same amount, converted by molar mass. Activity calls are given as the source filed them. No cut-off for these calls is given here.
Legend:
[1] = test system: HeLa; test: Antiproliferative activity against human HeLa cells after 48 hrs by MTT assay; type: functional, cell-based
[2] = test system: HepG2; test: Antiproliferative activity against human HepG2 cells after 48 hrs by MTT assay; type: functional, cell-based; conditions: HepG2, 48 h
[3] = Antiproliferative activity against human SW1116 cells after 48 hrs by MTT assay; type: functional, cell-based; conditions: SW 1116, 48 h
[4] = test system: BGC-823; test: Antiproliferative activity against human BGC823 cells after 48 hrs by MTT assay; type: functional, cell-based; conditions: BGC-823, 48 h
[5] = biological target: T1, Focal adhesion kinase 1 (Homo sapiens, UniProt Q05397); test: Inhibition of human recombinant full-length FAK assessed as remaining ATP after 4 hrs by Kinase-Glo-luminescence assay
Target sequence in this assay (Q05397 whole entry): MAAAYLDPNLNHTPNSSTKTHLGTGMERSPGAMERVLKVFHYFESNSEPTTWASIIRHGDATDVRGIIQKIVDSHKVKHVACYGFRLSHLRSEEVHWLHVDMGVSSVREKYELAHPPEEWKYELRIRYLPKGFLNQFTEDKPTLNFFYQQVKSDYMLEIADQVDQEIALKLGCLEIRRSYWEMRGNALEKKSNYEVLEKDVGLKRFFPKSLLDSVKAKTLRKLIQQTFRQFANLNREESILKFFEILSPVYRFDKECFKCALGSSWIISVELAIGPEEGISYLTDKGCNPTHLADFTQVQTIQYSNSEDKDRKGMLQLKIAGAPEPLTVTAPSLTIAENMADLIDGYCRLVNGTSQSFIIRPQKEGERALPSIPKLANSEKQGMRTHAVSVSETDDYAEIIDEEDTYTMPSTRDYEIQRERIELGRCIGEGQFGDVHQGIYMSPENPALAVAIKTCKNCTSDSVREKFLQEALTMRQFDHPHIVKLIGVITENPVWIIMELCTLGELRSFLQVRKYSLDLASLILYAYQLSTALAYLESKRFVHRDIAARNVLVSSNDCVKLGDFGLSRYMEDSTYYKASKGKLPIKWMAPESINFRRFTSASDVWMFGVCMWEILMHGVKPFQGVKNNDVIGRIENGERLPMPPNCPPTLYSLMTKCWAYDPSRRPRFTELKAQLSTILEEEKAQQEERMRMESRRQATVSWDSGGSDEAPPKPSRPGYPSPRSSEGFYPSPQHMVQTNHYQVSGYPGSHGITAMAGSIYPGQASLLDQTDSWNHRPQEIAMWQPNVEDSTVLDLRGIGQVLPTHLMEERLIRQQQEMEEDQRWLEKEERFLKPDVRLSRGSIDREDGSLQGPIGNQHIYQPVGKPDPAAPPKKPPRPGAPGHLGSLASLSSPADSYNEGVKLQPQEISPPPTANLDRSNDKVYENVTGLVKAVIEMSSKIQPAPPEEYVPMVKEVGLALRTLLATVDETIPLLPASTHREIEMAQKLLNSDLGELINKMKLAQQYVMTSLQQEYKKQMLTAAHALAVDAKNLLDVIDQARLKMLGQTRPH

[6] = test system: HepG2; test: Induction of apoptosis in human HepG2 cells assessed as late apoptotic cells at 1 uM after 24 hrs using Annexin V-FITC and propidium iodide staining by flow cytometry (reference value: 0.90 %); type: functional
[7] = test system: HepG2; test: Induction of apoptosis in human HepG2 cells assessed as late apoptotic cells at 4 uM after 24 hrs using Annexin V-FITC and propidium iodide staining by flow cytometry (reference value: 0.90 %); type: functional
[8] = test system: HepG2; test: Induction of apoptosis in human HepG2 cells assessed as viable cells at 1 uM after 24 hrs using Annexin V-FITC and propidium iodide staining by flow cytometry (reference value: 96.26 %); type: functional; conditions: HepG2, 24 h, read-out: Activity
[9] = test system: HepG2; test: Induction of apoptosis in human HepG2 cells assessed as early apoptotic cells at 4 uM after 24 hrs using Annexin V-FITC and propidium iodide staining by flow cytometry (reference value: 0.02 %); type: functional
[10] = test system: HepG2; test: Induction of apoptosis in human HepG2 cells assessed as viable cells at 4 uM after 24 hrs using Annexin V-FITC and propidium iodide staining by flow cytometry (reference value: 96.26 %); type: functional; conditions: HepG2, 24 h, read-out: Activity
[11] = test system: HepG2; test: Induction of apoptosis in human HepG2 cells assessed as viable cells at 2 uM after 24 hrs using Annexin V-FITC and propidium iodide staining by flow cytometry (reference value: 96.26 %); type: functional; conditions: HepG2, 24 h, read-out: Activity
[12] = test system: HepG2; test: Induction of apoptosis in human HepG2 cells assessed as necrotic cells at 4 uM after 24 hrs using Annexin V-FITC and propidium iodide staining by flow cytometry (reference value: 2.82 %); type: functional
[13] = test system: HepG2; test: Induction of apoptosis in human HepG2 cells assessed as late apoptotic cells at 2 uM after 24 hrs using Annexin V-FITC and propidium iodide staining by flow cytometry (reference value: 0.90 %); type: functional
[14] = test system: HepG2; test: Induction of apoptosis in human HepG2 cells assessed as necrotic cells at 0.5 uM after 24 hrs using Annexin V-FITC and propidium iodide staining by flow cytometry (reference value: 2.82 %); type: functional
[15] = test system: HepG2; test: Induction of apoptosis in human HepG2 cells assessed as early apoptotic cells at 1 uM after 24 hrs using Annexin V-FITC and propidium iodide staining by flow cytometry (reference value: 0.02 %); type: functional
[16] = test system: HepG2; test: Induction of apoptosis in human HepG2 cells assessed as viable cells at 0.5 uM after 24 hrs using Annexin V-FITC and propidium iodide staining by flow cytometry (reference value: 96.26 %); type: functional; conditions: HepG2, 24 h, read-out: Activity
[17] = biological target: T1, Focal adhesion kinase 1; test: Inhibition of FAK in human HepG2 cells at 2.22 to 20 uM by Western blot analysis; type: cell-based
Target sequence in this assay (Q05397 2-1052 limits assumed): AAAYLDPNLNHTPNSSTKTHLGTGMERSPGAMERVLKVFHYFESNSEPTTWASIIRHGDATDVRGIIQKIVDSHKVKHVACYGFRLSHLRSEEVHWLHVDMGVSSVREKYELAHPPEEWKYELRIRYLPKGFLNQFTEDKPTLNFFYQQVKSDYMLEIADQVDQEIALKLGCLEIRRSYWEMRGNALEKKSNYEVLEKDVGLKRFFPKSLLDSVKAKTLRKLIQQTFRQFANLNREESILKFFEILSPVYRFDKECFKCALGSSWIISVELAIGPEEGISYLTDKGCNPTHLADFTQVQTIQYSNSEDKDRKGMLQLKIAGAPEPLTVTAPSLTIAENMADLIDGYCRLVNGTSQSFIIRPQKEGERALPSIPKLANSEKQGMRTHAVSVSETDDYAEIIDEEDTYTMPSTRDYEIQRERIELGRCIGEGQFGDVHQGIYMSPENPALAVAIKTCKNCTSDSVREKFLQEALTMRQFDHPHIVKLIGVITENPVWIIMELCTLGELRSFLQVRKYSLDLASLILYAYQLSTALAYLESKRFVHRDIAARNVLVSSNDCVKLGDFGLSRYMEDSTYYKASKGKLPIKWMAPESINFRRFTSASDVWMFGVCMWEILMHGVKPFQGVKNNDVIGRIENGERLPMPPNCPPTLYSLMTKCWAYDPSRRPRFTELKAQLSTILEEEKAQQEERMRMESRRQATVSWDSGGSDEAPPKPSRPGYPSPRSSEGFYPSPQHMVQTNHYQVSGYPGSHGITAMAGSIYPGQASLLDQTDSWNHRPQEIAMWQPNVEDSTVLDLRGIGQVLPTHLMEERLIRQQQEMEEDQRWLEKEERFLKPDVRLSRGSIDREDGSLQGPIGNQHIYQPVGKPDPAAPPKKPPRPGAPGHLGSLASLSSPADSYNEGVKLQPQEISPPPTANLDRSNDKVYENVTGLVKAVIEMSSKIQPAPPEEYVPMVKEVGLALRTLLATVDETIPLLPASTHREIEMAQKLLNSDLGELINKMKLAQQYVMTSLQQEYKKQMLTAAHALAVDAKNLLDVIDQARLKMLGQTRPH

[18] = test system: HepG2; test: Induction of apoptosis in human HepG2 cells assessed as early apoptotic cells at 2 uM after 24 hrs using Annexin V-FITC and propidium iodide staining by flow cytometry (reference value: 0.02 %); type: functional
[19] = test system: HepG2; test: Induction of apoptosis in human HepG2 cells assessed as cleaved PARP level at 0.74 to 20 […] uM by Western blotting; type: functional, cell-based
[20] = test system: HepG2; test: Induction of apoptosis in human HepG2 cells assessed as early apoptotic cells at 0.5 uM after 24 hrs using Annexin V-FITC and propidium iodide staining by flow cytometry (reference value: 0.02 %); type: functional
[21] = test system: HepG2; test: Induction of apoptosis in human HepG2 cells assessed as necrotic cells at 2 uM after 24 hrs using Annexin V-FITC and propidium iodide staining by flow cytometry (reference value: 2.82 %); type: functional
[22] = test system: HepG2; test: Induction of apoptosis in human HepG2 cells assessed as late apoptotic cells at 0.5 uM after 24 hrs using Annexin V-FITC and propidium iodide staining by flow cytometry (reference value: 0.90 %); type: functional
[23] = test system: HepG2; test: Induction of apoptosis in human HepG2 cells assessed as necrotic cells at 1 uM after 24 hrs using Annexin V-FITC and propidium iodide staining by flow cytometry (reference value: 2.82 %); type: functional
[24] = test system: HepG2; test: Induction of apoptosis in human HepG2 cells assessed as cleaved caspase 3 level at 0.74 to 20 […] uM by Western blotting; type: functional, cell-based

Compound	EC50 [1] [µg/mL]	EC50 [2] [µg/mL]	EC50 [3] [µg/mL]	EC50 [4] [µg/mL]	pEC50 [5]	other results
Nc1ccc(C(=O)Nc2nnc(-c3ccc4c(c3)OCCO4)s2)cc1	> 100	> 100	41.2 (≈ 116 µM)	> 100		
O=C(Nc1nnc(-c2ccc3c(c2)OCCO3)s1)c1ccc(Cl)nc1	> 100	15.3 (≈ 41 µM)	30.3 (≈ 81 µM)	> 100	4.44	
O=C(Cc1ccc(Br)cc1)Nc1nnc(-c2ccc3c(c2)OCCO3)s1	51.2 (≈ 118 µM)	42.1 (≈ 97.5 µM)	> 100	> 100	4.26	
CCOc1ccc(CC(=O)Nc2nnc(-c3ccc4c(c3)OCCO4)s2)cc1OCC	> 100	> 100	> 100	> 100		
O=C(CCc1ccccc1)Nc1nnc(-c2ccc3c(c2)OCCO3)s1	32.5 (≈ 88.3 µM)	15.3 (≈ 41.7 µM)	16.2 (≈ 44 µM)	14.2 (≈ 38.7 µM)	4.42	
O=c1[nH]cc(F)c(=O)[nH]1 [FLUOROURACIL]	31 (≈ 238 µM)	23.3 (≈ 179 µM)	28.5 (≈ 219 µM)	17.4 (≈ 134 µM)		
O=C(Nc1nnc(-c2ccc3c(c2)OCCO3)s1)c1ccncc1	> 100	> 100	> 100	41 (≈ 121 µM)		
O=C(/C=C/c1ccccc1)Nc1nnc(-c2ccc3c(c2)OCCO3)s1	> 100	10.3 (≈ 28.1 µM)	60.2 (≈ 165 µM)	45.4 (≈ 124 µM)	4.53	Activity [6]: 13.17%; Activity [7]: 23.25%; viability at 1 µM [8]: 58.9%; Activity [9]: 11%; viability at 4 µM [10]: 39.5%; viability at 2 µM [11]: 50.8%; Activity [12]: 26.23%; Activity [13]: 18%; Activity [14]: 32.8%; Activity [15]: 3.49%; viability at 0.5 µM [16]: 58.3%; inhibition [17]: Active; Activity [18]: 4.03%; Activity [19]: Active; Activity [20]: 0.8%; Activity [21]: 27.21%; Activity [22]: 8%; Activity [23]: 24.49%; Activity [24]: Active
O=C(Cc1cccc(Cl)c1)Nc1nnc(-c2ccc3c(c2)OCCO3)s1	34.9 (≈ 89.9 µM)	18.4 (≈ 47.5 µM)	47.6 (≈ 123 µM)	> 100	4.33	
O=C(Nc1nnc(-c2ccc3c(c2)OCCO3)s1)c1ccccn1	> 100	> 100	> 100	35.8 (≈ 105 µM)		
O=C(Cc1ccccc1)Nc1nnc(-c2ccc3c(c2)OCCO3)s1	49.9 (≈ 141 µM)	18.3 (≈ 51.7 µM)	51.3 (≈ 145 µM)	27.4 (≈ 77.5 µM)	4.30	
O=C(Cc1ccc2ccccc2c1)Nc1nnc(-c2ccc3c(c2)OCCO3)s1	> 100	> 100	43.6 (≈ 108 µM)	67.9 (≈ 168 µM)		
O=C(Cc1cccc(Br)c1)Nc1nnc(-c2ccc3c(c2)OCCO3)s1	54.2 (≈ 125 µM)	45.8 (≈ 106 µM)	> 100	> 100	4.22	
Cc1ccccc1C(=O)Nc1nnc(-c2ccc3c(c2)OCCO3)s1	> 100	> 100	> 100	> 100		
CC(=O)c1ccc(CC(=O)Nc2nnc(-c3ccc4c(c3)OCCO4)s2)cc1	> 100	> 100	> 100	> 100		
Cc1ccc(C(=O)Nc2nnc(-c3ccc4c(c3)OCCO4)s2)cn1	> 100	> 100	> 100	> 100		
O=C(Cc1ccc(F)cc1)Nc1nnc(-c2ccc3c(c2)OCCO3)s1	> 100	23.8 (≈ 64 µM)	> 100	> 100	4.29	
COc1cccc(CC(=O)Nc2nnc(-c3ccc4c(c3)OCCO4)s2)c1	> 100	> 100	> 100	> 100		
O=C(Nc1nnc(-c2ccc3c(c2)OCCO3)s1)c1ccccc1	> 100	34.8 (≈ 102 µM)	67.6 (≈ 199 µM)	46.1 (≈ 136 µM)	4.21	
O=C(Cc1ccc(Cl)cc1)Nc1nnc(-c2ccc3c(c2)OCCO3)s1	26.8 (≈ 69 µM)	13.8 (≈ 35.5 µM)	40.7 (≈ 105 µM)	> 100	4.50	

From ChEMBL document CHEMBL1833863, “Synthesis, biological evaluation and molecular docking studies of 1,3,4-thiadiazole derivatives containing 1,4-benzodioxan as potential antitumor agents” (Bioorg Med Chem Lett, 2011)
